Starred links: 1 amine or outer side, 2 acyl side, 3 side chain; linkers in the order of their positions; H or OH if unused. Positions of bridges follow the written chain, without caps; N, C: chain ends. Non-standard residues stand in square brackets, D forms with d. Residues, ends and D or L forms follow the SMILES beside them. γGlu = O=C(O)[C@H](CCC(=O)[*:2])N[*:1]; Ahp(2) = CCCCC[C@H](N)C(=O)O; NMeNle = CCCC[C@H](NC)C(=O)O; NHexGly = CCCCCCNCC(=O)O; Nle = CCCC[C@H](N)C(=O)O; Orn = NCCC[C@H](N)C(=O)O; Aun = NCCCCCCCCCCC(=O)O; Nva = CCC[C@H](N)C(=O)O; Abu = CC[C@H](N)C(=O)O
biological target: T1, mouse VISTA (mVISTA) (Mus musculus, UniProt Q9D659); experiment: Cell-Based Binding High-Content Assay For mVISTA (HC CBA mVISTA); conditions: 293T cells expressing mouse VISTA; competition with biotinylated peptide (2 nM); read-out: HC CBA mVISTA IC50
T1 construct: expressed in transfected cells; host or cells: Human embryonic kidney 293T cells
T1 sequence (Q9D659 33-308): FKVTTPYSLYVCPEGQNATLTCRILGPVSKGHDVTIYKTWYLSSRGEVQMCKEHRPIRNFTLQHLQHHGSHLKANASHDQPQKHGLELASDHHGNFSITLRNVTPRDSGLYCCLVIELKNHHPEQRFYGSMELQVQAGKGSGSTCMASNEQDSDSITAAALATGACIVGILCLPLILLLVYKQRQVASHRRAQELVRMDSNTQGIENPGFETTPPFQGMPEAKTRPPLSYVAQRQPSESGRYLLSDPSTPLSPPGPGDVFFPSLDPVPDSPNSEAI
Procedure, shortened: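 mVISTA-293T, 4,000 cells/well; cpd ± washout step; biotin-peptide 2 nM final, 30 min RT; SA-Alexa 647 30 min; formaldehyde/Hoechst fix; HCS imaging; 4PL IC50.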

Row | IC50 [nM] | Structure (SMILES)
1 | 58 | CCCCCCN1CC(=O)N[C@@H](Cc2ccc(O)cc2)C(=O)N[C@@H](CCCCC)C(=O)N[C@@H](CC(N)=O)C(=O)N[C@@H](CCCNC(=N)N)C(=O)N[C@@H](CC(C)C)C(=O)N[C@@H](CCCCC)C(=O)N2CCC[C@H]2C(=O)N[C@@H](C(C)C)C(=O)N[C@@H](CO)C(=O)N[C@H](C(=O)NCC(=O)N[C@@H](CCC(=O)O)C(=O)NCCCCCCCCCCC(=O)O)CSCC(=O)N[C@@H](Cc2ccccc2)C(=O)N[C@@H](Cc2ccc(O)cc2)C(=O)N[C@@H](CC(=O)O)C1=O [Example 2341] ({CH2CO}-FYD[NHexGly]Y[Ahp(2)]NRL[Ahp(2)]PVSCGE[Aun]-OH; thioether N-14)

same assay, conditions: read-out: HC CBA mVISTA IC50

Row | IC50 [nM] | Structure (SMILES)
2 | 19 | CCCCCCN1CC(=O)N[C@@H](Cc2ccc(O)cc2)C(=O)N[C@@H](CCCCC)C(=O)N[C@@H](CC(N)=O)C(=O)N[C@@H](CCCNC(=N)N)C(=O)N[C@@H](CC(C)C)C(=O)N[C@@H](CCCCC)C(=O)N2CCC[C@H]2C(=O)N[C@@H](C(C)C)C(=O)N[C@@H](CO)C(=O)N[C@H](C(=O)N[C@@H](CCC(=O)NCCCCCCCCCCC(=O)O)C(=O)O)CSCC(=O)N[C@@H](Cc2ccccc2)C(=O)N[C@@H](Cc2ccc(O)cc2)C(=O)N[C@@H](CC(=O)O)C1=O [Example 2340] ({CH2CO}-FYD[NHexGly]Y[Ahp(2)]NRL[Ahp(2)]PVSC[γGlu][Aun]-OH; thioether N-14)
3 | 29.9 | CCCCCCN1CC(=O)N[C@@H](Cc2ccc(O)cc2)C(=O)N[C@@H](CCCC)C(=O)N[C@@H](CC(=O)O)C(=O)N[C@@H](CCCNC(=N)N)C(=O)N[C@@H](CC(C)C)C(=O)N[C@@H](CCCCC)C(=O)N2CCC[C@H]2C(=O)N[C@@H](C(C)C)C(=O)N2CCC[C@H]2C(=O)N[C@H](C(=O)NCC(=O)O)CSCC(=O)N[C@@H](Cc2ccccc2)C(=O)N[C@@H](Cc2ccc(O)cc2)C(=O)N[C@@H](CC(=O)O)C1=O [compound 1118] ({CH2CO}-FYD[NHexGly]Y[Nle]DRL[Ahp(2)]PVPCG-OH; thioether N-14)
4 | 2.6 | CCCCCCN1CC(=O)N[C@@H](Cc2ccc(O)cc2)C(=O)N[C@@H](CCC)C(=O)N[C@@H](CC(N)=O)C(=O)N[C@@H](CCCNC(=N)N)C(=O)N[C@@H](CC(C)C)C(=O)N[C@@H](CCCCC)C(=O)N2CCC[C@H]2C(=O)N[C@@H](C(C)C)C(=O)N2CCC[C@H]2C(=O)N[C@H](C(=O)NCC(=O)O)CSCC(=O)N[C@@H](Cc2ccccc2)C(=O)N[C@@H](Cc2ccc(O)cc2)C(=O)N[C@@H](CC(=O)O)C1=O [compound 1120] ({CH2CO}-FYD[NHexGly]Y[Nva]NRL[Ahp(2)]PVPCG-OH; thioether N-14)
5 | 32.4 | CCCCCCN1CC(=O)N[C@@H](Cc2ccc(O)cc2)C(=O)N[C@@H](CCCC)C(=O)N[C@@H](CC(N)=O)C(=O)N[C@@H](CCCNC(=N)N)C(=O)N[C@@H](CC(C)C)C(=O)N[C@@H](CCCCC)C(=O)N2CCC[C@H]2C(=O)N[C@@H](C(C)C)C(=O)N2CCC[C@H]2C(=O)N[C@H](C(=O)NCC(=O)O)CSCC(=O)N[C@@H](Cc2ccccc2)C(=O)N[C@@H](Cc2ccc(O)cc2)C(=O)N[C@@H](CC(=O)O)C1=O [compound 1121] ({CH2CO}-FYD[NHexGly]Y[Nle]NRL[Ahp(2)]PVPCG-OH; thioether N-14)
6 | 37.6 | CCCCCCN1CC(=O)N[C@@H](Cc2ccc(O)cc2)C(=O)N[C@@H](C(C)C)C(=O)N[C@@H](CC(N)=O)C(=O)N[C@@H](CCCNC(=N)N)C(=O)N[C@@H](CC(C)C)C(=O)N[C@@H](CCCCC)C(=O)N2CCC[C@H]2C(=O)N[C@@H](C(C)C)C(=O)N2CCC[C@H]2C(=O)N[C@H](C(=O)NCC(=O)O)CSCC(=O)N[C@@H](Cc2ccccc2)C(=O)N[C@@H](Cc2ccc(O)cc2)C(=O)N[C@@H](CC(=O)O)C1=O [compound 1122] ({CH2CO}-FYD[NHexGly]YVNRL[Ahp(2)]PVPCG-OH; thioether N-14)
7 | 25.4 | CCCCCCN1CC(=O)N[C@@H](Cc2ccc(O)cc2)C(=O)N[C@@H](CC)C(=O)NCC(=O)N[C@@H](CCCNC(=N)N)C(=O)N[C@@H](CC(C)C)C(=O)N[C@@H](CCCCC)C(=O)N2CCC[C@H]2C(=O)N[C@@H](C(C)C)C(=O)N2CCC[C@H]2C(=O)N[C@H](C(=O)NCC(=O)O)CSCC(=O)N[C@@H](Cc2ccccc2)C(=O)N[C@@H](Cc2ccc(O)cc2)C(=O)N[C@@H](CC(=O)O)C1=O [compound 1123] ({CH2CO}-FYD[NHexGly]Y[Abu]GRL[Ahp(2)]PVPCG-OH; thioether N-14)
8 | 32.3 | CCCCCCN1CC(=O)N[C@@H](Cc2ccc(O)cc2)C(=O)N[C@@H](CC(C)C)C(=O)NCC(=O)N[C@@H](CCCNC(=N)N)C(=O)N[C@@H](CC(C)C)C(=O)N[C@@H](CCCCC)C(=O)N2CCC[C@H]2C(=O)N[C@@H](C(C)C)C(=O)N2CCC[C@H]2C(=O)N[C@H](C(=O)NCC(=O)O)CSCC(=O)N[C@@H](Cc2ccccc2)C(=O)N[C@@H](Cc2ccc(O)cc2)C(=O)N[C@@H](CC(=O)O)C1=O [compound 1124] ({CH2CO}-FYD[NHexGly]YLGRL[Ahp(2)]PVPCG-OH; thioether N-14)
9 | 33.5 | CCCCCCN1CC(=O)N[C@@H](Cc2ccc(O)cc2)C(=O)N[C@@H](CC(C)C)C(=O)NCC(=O)N[C@@H](CCCNC(=N)N)C(=O)N[C@@H](CC(C)C)C(=O)N[C@@H](CCCCC)C(=O)N2CCC[C@H]2C(=O)N[C@@H](C(C)C)C(=O)N2CCC[C@H]2C(=O)N[C@H](C(=O)NCC(N)=O)CSCC(=O)N[C@@H](Cc2ccccc2)C(=O)N[C@@H](Cc2ccc(O)cc2)C(=O)N[C@@H](CC(=O)O)C1=O [compound 1125] ({CH2CO}-FYD[NHexGly]YLGRL[Ahp(2)]PVPCG-NH2; thioether N-14)
10 | 15.7 | CCCCCCN1CC(=O)N[C@@H](Cc2ccc(O)cc2)C(=O)N[C@@H](CCCC)C(=O)N[C@@H](CC(N)=O)C(=O)N[C@@H](CCCNC(=N)N)C(=O)N(C)[C@@H](CCCC)C(=O)N[C@@H](CCCCC)C(=O)N2CCC[C@H]2C(=O)N[C@@H](C(C)C)C(=O)N[C@@H](CC(=O)O)C(=O)N[C@H](C(=O)N[C@@H](CCCCN)C(=O)N[C@@H](CC(N)=O)C(=O)O)CSCC(=O)N[C@@H](Cc2ccccc2)C(=O)N[C@@H](Cc2c[nH]c3ccccc23)C(=O)N[C@@H](CC(=O)O)C1=O [compound 1128] ({CH2CO}-FWD[NHexGly]Y[Nle]NR[NMeNle][Ahp(2)]PVDCKN-OH; thioether N-14)
11 | 13.4 | CCCCCCN1CC(=O)N[C@@H](Cc2ccc(O)cc2)C(=O)N[C@@H](CCCC)C(=O)N[C@@H](CC(N)=O)C(=O)N[C@@H](CCCNC(=N)N)C(=O)N(C)[C@@H](CCCC)C(=O)N[C@@H](CCCCC)C(=O)N2CCC[C@H]2C(=O)N[C@@H](C(C)C)C(=O)N[C@@H](CC(=O)O)C(=O)N[C@H](C(=O)N[C@@H](CCCN)C(=O)N[C@@H](CC(N)=O)C(=O)O)CSCC(=O)N[C@@H](Cc2ccccc2)C(=O)N[C@@H](Cc2c[nH]c3ccccc23)C(=O)N[C@@H](CC(=O)O)C1=O [compound 1129] ({CH2CO}-FWD[NHexGly]Y[Nle]NR[NMeNle][Ahp(2)]PVDC[Orn]N-OH; thioether N-14)
12 | 17.5 | CCCCCCN1CC(=O)N[C@@H](Cc2ccc(O)cc2)C(=O)N[C@@H](CCCC)C(=O)N[C@@H](CC(N)=O)C(=O)N[C@@H](CCCNC(=N)N)C(=O)N(C)[C@@H](CCCC)C(=O)N[C@@H](CCCCC)C(=O)N2CCC[C@H]2C(=O)N[C@@H](C(C)C)C(=O)N[C@@H](CC(=O)O)C(=O)N[C@H](C(=O)N[C@@H](CCCN)C(=O)N[C@@H](CCC(N)=O)C(=O)O)CSCC(=O)N[C@@H](Cc2ccccc2)C(=O)N[C@@H](Cc2c[nH]c3ccccc23)C(=O)N[C@@H](CC(=O)O)C1=O [compound 1130] ({CH2CO}-FWD[NHexGly]Y[Nle]NR[NMeNle][Ahp(2)]PVDC[Orn]Q-OH; thioether N-14)

From patent publication US20240218022A1, “ANTI-VISTA MACROCYCLIC PEPTIDES AND COMPOSITIONS” (BRISTOL-MYERS SQUIBB COMPANY, priority 2022, published 2024)
